Source: patent US9511072B2, “Methods of modulating cell proliferation and cyst formation in polycystic kidney and liver diseases” (The Medical College of Wisconsin, Inc., priority 2006, dated 2016)
Entries after “also recorded” stand apart in the source; their conditions may differ.

Assays:
[1] = tested on: Cyp4a12-expressing Balb/C cells; assay: Cell counting of Cyp4a12-transduced non-cystic Balb/C cells; format: cell-based, mouse; conditions: 10 μM
Description: (§1) For the cell counting experiments, the non-cystic Balb/C (+/+) and cystic BPK renal epithelial cells were seeded in 6-well dishes and changed into media lacking γ-IFN at 37° C. (non-permissive conditions) for at least 6 additional days prior to assessing any phenotypic analyses to ensure the loss of the T antigen (Sweeney W E et al. Am J Physiol Cell Physiol, 281:C1695-705, 2001). Cells were harvested by tryptic digestion and counted by light microscopy using a hemocytometer.
(§2) The cells in this experiment were transduced using the lentiviral vectors in the presence of γ-IFN (i.e., permissive state) and allowed to expand. Once the cells were expanded, the transduced cells were grown in the absence of γ-IFN (i.e., non-permissive state) for 10 days. The cells were harvested and counted to initiate the proliferation experiment.
There was no significant difference (P>0.05) between Balb/C cells treated with vehicle or the EGFP-transduced lentiviral vectors.

[2] = tested on: cystic BPK cells; assay: BrdU incorporation in cystic BPK cells; format: cell-based, mouse; conditions: 36 hours, vehicle 118
Description: To determine the level of proliferation in the cystic BPK cells, chemically dissimilar inhibitors of cytochrome P450 4A (CYP4A) and 4F (CYP4F) inhibitors, specifically HET-0016 (10 and 20 μM) and DDMS (10 μM), were incubated for 36 hours with the BPK cells. Three hours prior to the harvesting of the cells, 5-bromo-2′-deoxyuridine (BrdU) at a concentration of 30 μM was added to determine the level of cell cycle inhibition. The cells were subsequently methanol fixed and BrdU-positive cells were identified by immunohistology with biotinylated monoclonal anti-BrdU antibody (Zymed, South San Francisco, Calif.). Data were expressed as the percentage of BrdU-labeled cells per 500 counted cells.

[3] = tested on: cystic PCK CT cells; assay: BrdU proliferation of primary cystic PCK collecting tubule cells; format: cell-based, rat; conditions: 10 μM, 36 hours; vehicle 28.5%±1%
Description: Renal CT cells from the PCK rat were isolated as described in Sweeney W. E. et al., Am J Physiol C Physiol, 2001, 281:C1695-705, using monoclonal F-13 a principal cells specific surface marker (Fejes-Toth N et al., J Tiss Cult Meth 1991, 13:179-184).
To determine the level of proliferation in the cystic PCK CT cells, the cells were incubated with HET-0016 (10 μM) or vehicle for 36 hours. Three hours prior to the harvesting of the cells, 5-bromo-2′-deoxyuridine (BrdU) at a concentration of 30 μM was added to determine the level of cell cycle inhibition. The cells were subsequently methanol fixed and BrdU-positive cells were identified by immunohistology with biotinylated monoclonal anti-BrdU antibody (Zymed, South San Francisco, Calif.). Data were expressed as the percentage of BrdU-labeled cells per 500 counted cells. In the vehicle treated group, 28.5%±1% (n=3) were labeled with BrdU. In the HET-0016 treated group, 10.8%±1% (n=3) were labeled with BrdU.

[4] = tested on: REC11 cells; assay: BrdU proliferation of EGF-stimulated REC11 cystic renal epithelial cells; format: cell-based, mouse; conditions: 36 hrs, after EGF 25 ng/ml for 6 hours
Description: (§3) REC11 cystic cell line is a conditionally immortalized epithelial collecting tubule (CT) cell line derived from the cystic kidneys of the BPK mouse model of human ARPKD crossed to the ImmortoMouse. The BPK mouse as a human ARPKD model has been described in Nauta J. et al., Pediatr Nephrol 1993, 7:163-172 and Nauta J. et al., Pediatr Res 1995, 37:755-763. The procedures for immortalization, cell isolation, cell culture and the complete phenotypic characterization of this cell line have been described in detail in Sweeney W. E. et al., Am J Physiol C Physiol 2001, 281:C1695-705. All analysis and experiments were performed on REC11 cells grown for a minimum 6 days under non-permissive conditions to eliminate residual Large T.
Proliferation of REC11 cells was stimulated by exposure of the cells for 6 hours with EGF (25 ng/ml). Next, the cells were treated with vehicle, HET0016 (10 μM, a 20-HETE synthesis inhibitor), HET0016 (20 μM), DDMS (10 μM, a 20-HETE synthesis inhibitor), or WIT-002 (10 μM, a 20-HETE antagonist) for 36 hrs, pulsed with BrdU, and then stained for BrdU labeled cells to determine the degree of cell proliferation. […] Cells treated with a higher dose of HET0016 (20 μM) (column C) reduced proliferation by 75% (p<0.020). Cells treated with another chemically dissimilar inhibitor of the synthesis of 20-HETE, DDMS (10 μM) (column D), reduced proliferation by 47% (p<0.05). Cells treated with WIT-002 (10 μM) (column E) reduced proliferation by 25%.

[5] = tested on: Balb/C mice; assay: Chronic HET-0016 treatment of non-cystic Balb/C mice; format: in vivo, mouse; conditions: 10 mg/kg/day i.p.
[6] = tested on: cystic BPK renal epithelial cells; assay: Cell counting of cystic BPK renal epithelial cells; format: cell-based, mouse; conditions: 10 μM added daily, day 2, non-permissive conditions
Description: as §1, §2

[7] = tested on: EGF receptor (EGFR) phosphorylation in REC12 cells; assay: Western blot of phosphorylated EGFR in normal REC12 cells; format: cell-based, mouse; conditions: 10 μM, REC12 normal renal epithelial cells
Description: as §3, with “T. REC12 cell line is a conditionally immortalized epithelial collecting tubule (CT) cell line derived from the wild-type Balb/C littermates. The Balb/C is the strain of mice in which the BPK mutation arose (Nauta J. et al., Pediatr Nephrol 1993, 7:163-172 and Nauta J. et al., Pediatr Res 1995, 37:755-763).” for “T.”
(§4) REC11 cells (FIG. 2, lanes A and B) and control renal epithelial cells (REC12 cells: FIG. 2, lanes C and D) were grown for 10 days. Next, the cells were exposed to vehicle (lanes A and C) or 10 μM HET0016 (lanes B and D) and then harvested for assessment of the expression of phosphorylated EGFR by Western Blot analysis.

[8] = tested on: EGF receptor (EGFR) phosphorylation in REC11 cells; assay: Western blot of phosphorylated EGFR in REC11 cystic cells; format: cell-based, mouse; conditions: 10 μM
Description: as §3, with “T. REC12 cell line is a conditionally immortalized epithelial collecting tubule (CT) cell line derived from the wild-type Balb/C littermates. The Balb/C is the strain of mice in which the BPK mutation arose (Nauta J. et al., Pediatr Nephrol 1993, 7:163-172 and Nauta J. et al., Pediatr Res 1995, 37:755-763).” for “T.”
as §4

[9] = Balb/c (+/+), post-natal day 7-20, day 21

**Q.** “N-hydroxy-N-(4-butyl-2-methylphenyl)-formamidine [HET0016]” was tested. Which “increased cell proliferation of Balb/C cells over-expressing Cyp4a12” value [1] did it give?
**A.** completely abolished the increased cell proliferation

**Q.** What about the “number of Cyp4a12-expressing Balb/C cells” value ([1]; day 3, without inhibitor 285,792±21,892) of the same substance?
**A.** 49,700±5,085

**Q.** And the “BrdU-positive cells per 500 total cells counted” value ([2]; 10 μM)?
**A.** 52 BrdU(+) cells

**Q.** What about the “BrdU-positive cells per 500 total cells counted” value ([2]; 20 μM) of the same substance?
**A.** 38 BrdU(+) cells

**Q.** What about the “cells labeled with BrdU (per 500 counted cells)” value [3] of the same substance?
**A.** 10.8%±1%

**Q.** And the “reduction of proliferation (BrdU labeled cells) vs vehicle” value ([4]; 10 μM)?
**A.** 66%

**Q.** What about the “reduction of proliferation (BrdU labeled cells) vs vehicle” value ([4]; 20 μM) of the same substance?
**A.** 75%

**Q.** What about the “kidney weight, body weight and KW/BW ratio vs vehicle” value ([5]; Balb/C mice) of the same substance?
**A.** unchanged

**Q.** And the Body weight [5, 9]?
**A.** 10.5 ± 1.3 g

**Q.** What about the KW/BW [5, 9] of the same substance?
**A.** 1.3 ± 0.2 %

**Q.** What about the “Kidney Weight” value [5, 9] of the same substance?
**A.** 0.13 ± 0.02 g

**Q.** What about the “number of cystic BPK cells” value [6] of the same substance?
**A.** 40,744±4,322

**Q.** What about the “phosphorylation of EGFR” value [7] of the same substance?
**A.** but not in normal renal epithelial cells; also recorded: lack of an effect

**Q.** What about the “phosphorylation of EGFR” value [8] of the same substance?
**A.** reduced the phosphorylation of EGFR
